In US9586959B2, “Substituted tricyclic heterocycles as histamine 4 receptor inhibitors” (C&C RESEARCH LABORATORIES, priority 2011, dated 2017):
Converted amounts (≈) assume the structure as drawn.

What was measured:
[1] = Metabolic stability in mouse microsome; settings: mouse microsome 1 mg/mL, 5 μM compound, 1 mM NADPH
[2] = target: human histamine 4 receptor (hH4R) (Homo sapiens (Human), UniProt Q9H3N8); experiment: Binding affinity of human histamine 4 receptor (hH4R), [3H] labeled histamine displacement; settings: hH4R-overexpressed cell membrane, [3H] histamine
Outline: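 Membranes of hH4R-overexpressing cells (25 μg) incubated with compound and [3H]histamine (diluted to 1 μM before addition) for 30 min at 27° C. Non-specific binding defined with histamine (100 μM before addition); bound radioligand collected by filtration on PEI-presoaked glass fibre, washed with 50 mM Tris-HCl pH 7.4, counted by scintillation (CPM).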

[3] = system: histamine-induced itching, ICR mice; experiment: Histamine-induced itching model in ICR mice; type: in vivo; settings: 50 mg/kg oral, histamine 300 nmol intradermal, 20 min count
Procedure: Female, ICR mice (8 weeks old) were purchased from OrientBio Co., Ltd. The animals were housed under conditions of controlled temperature (23±3° C.), humidity (50±5%) and lighting with food and water available ad libitum.
The hair was clipped using clippers (8000AD, THRIVE) over the rostral part of the back 24 hours before the experiment under anesthesia with isoflurane. Histamine (300 nmol) was dissolved in saline and a volume of 40 μL injected intradermally into the rostral part of the back. Mice were dosed with either vehicle (20% cyclodextrin in second distilled water) or the compound by orally administration. The Compound (50 mg/kg) dissolved in a vehicle (20% cyclodextrin in second distilled water) and administered orally at a volume of 10 mL/kg.
Mice (n=10 per group) were divided into 3 groups (normal group, control group and experimental group). The animals were randomized for similar body weight distribution. A vehicle or the compound was administered 20 minutes before injection of histamine or saline. Immediately after intradermal injection, the animals were returned to an acrylic cage (approximately 30×30×30 cm, access production) composed of four cells, to which they had been acclimated for at least 1 hour before the experiment, for observation of itch responses. A camera (Samsung, VLUUNV30) was positioned above the mice to record their response. Itch was measured by blinded counting of the number of scratching in the 20 min period immediately after the intradermal injection. A number of scratching was defined as 3 or more individual rapid scratch movements with the hind paws around the injection site (J. Allergy Clin. Immunol. 2007, 19(1), 176-183). All data were analyzed by using Excel and Prism, and all values are expressed as the mean±S.E.M. The inhibitory effect of compounds is shown as a percentage of the maximal response to histamine (100% control group).
Statistical analysis was analyzed using one-way ANOVA with Dunnett test. Values of p<0.05 were considered statistically significant.

[4] = target: human histamine 3 receptor (hH3R) (Homo sapiens (Human), UniProt Q9Y5N1); experiment: Binding affinity of human histamine 3 receptor (hH3R), [3H] labeled N-α-methylhistamine displacement; settings: hH3R-overexpressed cell membrane, [3H] N-α-methylhistamine
Outline: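 Membranes from cells overexpressing hH3R (15 μg) were incubated with compound and [3H]N-α-methylhistamine (20 μM stock) in 50 mM Tris-HCl pH 7.4, 5 mM MgCl2 for 30 min at 27 °C. Bound radioligand was counted by scintillation after filtration; 200 μM (R)(−)-α-methylhistamine stock defined non-specific binding; IC50 derived.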

[5] = Solubility in artificial gastrointestinal tract solution; type: physicochemical; settings: artificial gastrointestinal tract solution, thermodynamic from solid; for solubility at 1 h: fassgf or other biorelevant, first solution pH 1.2, 2 mg/mL sample, 37° C. 1 hour; for solubility at 2 h: fassif, second solution pH 6.5, 2 mg/mL sample, 37° C. 2 hours
Outline: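 Two media were used: pH 1.2 NaCl/HCl with Triton X-100, and pH 6.5 phosphate buffer with sodium taurocholate and lecithin. Heated sample solutions were filtered to remove undissolved compound, diluted 1:1 with CH3CN, and solubility was measured by liquid chromatography.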

[6] = Metabolic stability in human microsome; settings: for Metabolic stability (CLh. int), Human: human microsome 1 mg/mL, 5 μM compound, 1 mM NADPH

Chain of human histamine 3 receptor (hH3R) (Q9Y5N1 whole entry): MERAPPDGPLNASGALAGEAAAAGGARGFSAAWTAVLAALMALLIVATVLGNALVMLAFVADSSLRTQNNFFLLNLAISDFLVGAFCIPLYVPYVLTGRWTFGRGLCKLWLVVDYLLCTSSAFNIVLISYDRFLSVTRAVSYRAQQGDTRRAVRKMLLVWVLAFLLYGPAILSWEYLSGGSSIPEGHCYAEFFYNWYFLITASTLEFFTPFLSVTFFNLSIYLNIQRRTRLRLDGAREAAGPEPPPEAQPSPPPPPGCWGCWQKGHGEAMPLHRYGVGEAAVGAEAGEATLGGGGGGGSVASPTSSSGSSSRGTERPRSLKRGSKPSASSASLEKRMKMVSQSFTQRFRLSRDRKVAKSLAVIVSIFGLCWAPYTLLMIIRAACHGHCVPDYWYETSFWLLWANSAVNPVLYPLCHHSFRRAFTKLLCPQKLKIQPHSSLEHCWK

Row | Metabolic stability (CLh. int), Mouse [1] | IC50 [2] | IC50 [4] | solubility at 1 h [5] | solubility at 2 h [5] | Metabolic stability (CLh. int), Human [6] | Structure (SMILES) | Number of scratching (% changes from control group) [3] | % remaining in 30 minutes ([6]; human microsome, 30 minutes)
1 | 10220 µL/min/mg | 40 nM | 90000 nM | 2010 µg/mL (≈ 6.61 mM) | 1240 µg/mL (≈ 4.09 mM) | 2200 µL/min/mg | CN1CCN(c2nc3ncc(Cl)cc3n3cnnc23)CC1 [Compound 4, 8-Chloro-4-(4-methylpiperazin-1-yl)pyrido[2,3-e][1,2,4]triazolo[4,3-a]pyrazine] | 94.3^1% | 
2 | 1760 µL/min/mg | 55 nM | > 100000 nM | 1590 µg/mL (≈ 5.5 mM) | 791 µg/mL (≈ 2.73 mM) | 4200 µL/min/mg | CNC1CN(c2nc3ncc(Cl)cc3n3cnnc23)C1 [Compound 18, 1-(8-Chloropyrido[2,3-e][1,2,4]triazolo[4,3-a]pyrazin-4-yl)-N-methylazetidin-3-amine] | 84.3^1% | 
3 | 5310 µL/min/mg | 65 nM | > 100000 nM | 1610 µg/mL (≈ 4.22 mM) | 677 µg/mL (≈ 1.78 mM) | 400 µL/min/mg | CNC1CN(c2nc3ncc(I)cc3n3cnnc23)C1 [Compound 48, 1-(8-Iodopyrido[2,3-e][1,2,4]triazolo[4,3-a]pyrazin-4-yl)-N-methylazetidin-3-amine] | 67.3^1% | 
4 | 6900 µL/min/mg | 133 nM | > 100000 nM | 1370 µg/mL (≈ 4.74 mM) | 1150 µg/mL (≈ 3.97 mM) |  | Clc1cnc2nc(N3CCNCC3)c3nncn3c2c1 [Compound 7, 8-Chloro-4-(piperazin-1-yl)pyrido[2,3-e][1,2,4]triazolo[4,3-a]pyrazine] | 61.2^1% | NC^y: Not calculable (99.8% remaining in 30 minutes)

Row | Structure (SMILES) | Metabolic stability (CLh. int), Mouse [1] | IC50 [2] | IC50 [4] | solubility at 1 h [5] | solubility at 2 h [5] | Metabolic stability (CLh. int), Human [6] | Number of scratching (% changes from control group) [3] | % remaining in 30 minutes ([6]; human microsome, 30 minutes)
5 | CNC1CN(c2nc3ncc(Br)cc3n3nnnc23)C1 [Compound 95, 1-(8-Bromopyrido[2,3-e]tetrazolo[1,5-a]pyrazin-4-yl)-N-methylazetidin-3-amine] | 18100 µL/min/mg | 44 nM | > 100000 nM | 1790 µg/mL (≈ 5.34 mM) | 1130 µg/mL (≈ 3.36 mM) | 5500 µL/min/mg | 98.2^1% | 
6 | CNC1CN(c2nc3ncc(Br)cc3n3cnnc23)C1 [Compound 24, 1-(8-Bromopyrido[2,3-e][1,2,4]triazolo[4,3-a]pyrazin-4-yl)-N-methylazetidin-3-amine] | 3050 µL/min/mg | 36 nM | > 100000 nM | 1690 µg/mL (≈ 5.06 mM) | 939 µg/mL (≈ 2.81 mM) | 1330 µL/min/mg | 93.6^1% | 
